# Assays:
# [1] = Stability / precipitation of sunitinib solutions; format: physicochemical
# Text: However, preparing drug-loaded beads is not a straightforward procedure, especially if they should be loaded with chemotherapeutic agents of low solubility in aqueous media. This solubility can be insufficient to reach useful therapeutic dose, such as for sorafenib tosylate. In the case where apparent solubility is sufficient to reach useful therapeutic dose, it may appear that some delayed precipitation occurs; making impossible the utilization of such preparation in a clinic setup. For example, sunitinib base or malate can be dissolved in standard media used for loading anthracycline drugs, such as doxorubicine. […] In addition, no liquid oral or parenteral solution of any sunitinib salt is commercially available, that could be used to load DEBs. […] WO 2007/090897 further discloses a method for loading beads with water insoluble chemotherapeutic agents by using organic solvents. However, such an approach is not adequate for extemporaneous preparation by the medical staff.
# Advantageously, this solution is isotonic to human plasma and it is safe for the parenteral applications. Noteworthy, the sugar is not limited to glucose. Other sugars or polyol could be used such as sucrose, dextran, mannitol, sorbitol or trehalose.
# [2] = sunitinib per os, unique dose of 6 mg, rabbit; according to previous pharmacological studies (FDA); cited from earlier work
# [3] = cited from earlier work
# [4] = Liver enzymes after administration in healthy rabbits; conditions: sunitinib p.o., unique dose of 6 mg, healthy rabbit
# Description: Adult healhy male New Zealand White Rabbits (n=12) weighing between 3.2-2.8 kgs were used.
# DC Beads measuring between 100-300 μm (Biocompatibles) were used.
# Animals were separated in 3 groups.
# Liver enzymes were measured from blood samples obtained by a catheter placed in the vein of the rabbit's ear, immediately before embolization or oral administration of the drug and 6 hours.
Compound,precipitation in solution ([1]; standard media used for loading anthracycline drugs),therapeutic plasmatic concentration (Cmax) [2],plasma concentrations ([3]; approved starting oral dose 50 mg/day),patients with serious (grade 3 or 4) adverse events ([3]; oral sunitinib therapy),patients requiring dose reductions ([3]; patients treated for RCC),liver enzymes [4],"stability of the drug ([1]; HPLC analysis, sunitinib loaded DC beads preparation)","stability of sunitinib solution (precipitation) ([1]; in presence of sugar, 5% glucose, in contrast to saline or hydrochloric acid solutions)"
CCN(CC)CCNC(=O)c1c(C)[nH]c(/C=C2\C(=O)Nc3ccc(F)cc32)c1C [sunitinib malate],precipitate within a short period of time,,,,,,,
CCN(CC)CCNC(=O)c1c(C)[nH]c(/C=C2\C(=O)Nc3ccc(F)cc32)c1C [sunitinib],,45 to 55 ng/mL,at least 50 ng/ml,≤ 10%,50%,did not cause any alteration,verified,"stable, without any precipitation"

# Source: patent US10537643B2, “Chemoembolization composition comprising anti-angiogenic agents” (CENTRE HOSPITALIER UNIVERSITAIRE VAUDOIS, priority 2010, dated 2020)
